Test results taken from ChEMBL document CHEMBL1155979, “Synthesis of gibberellin derivatives with anti-tumor bioactivities” (Bioorg Med Chem Lett, 2009).
Converted amounts (≈) assume the structure as drawn. The source made the active and inactive calls. The calls are words filed in the database; no cut-off is given here.

Key:
HL-60 = assay: Cytotoxicity against human HL60 cells by MTT assay; assay type: functional, cell-based
[1] = Cytotoxicity against human BIU87 cells by MTT assay; assay type: functional, cell-based
HT-29 = assay: Cytotoxicity against human HT-29 cells by MTT assay; assay type: functional, cell-based
A549 = assay: Cytotoxicity against human A549 cells by MTT assay; assay type: functional, cell-based
HepG2 = assay: Cytotoxicity against human HepG2 cells by MTT assay; assay type: functional, cell-based
MKN-28 = assay: Cytotoxicity against human MKN28 cells by MTT assay; assay type: functional, cell-based
[2] = target: T1, DNA topoisomerase 1 (Homo sapiens) (UniProt P11387); assay: Inhibition of topoisomerase I relaxation activity assessed as supercoiled pBR322 DNA at 8 ug/ml
T1 sequence (whole entry): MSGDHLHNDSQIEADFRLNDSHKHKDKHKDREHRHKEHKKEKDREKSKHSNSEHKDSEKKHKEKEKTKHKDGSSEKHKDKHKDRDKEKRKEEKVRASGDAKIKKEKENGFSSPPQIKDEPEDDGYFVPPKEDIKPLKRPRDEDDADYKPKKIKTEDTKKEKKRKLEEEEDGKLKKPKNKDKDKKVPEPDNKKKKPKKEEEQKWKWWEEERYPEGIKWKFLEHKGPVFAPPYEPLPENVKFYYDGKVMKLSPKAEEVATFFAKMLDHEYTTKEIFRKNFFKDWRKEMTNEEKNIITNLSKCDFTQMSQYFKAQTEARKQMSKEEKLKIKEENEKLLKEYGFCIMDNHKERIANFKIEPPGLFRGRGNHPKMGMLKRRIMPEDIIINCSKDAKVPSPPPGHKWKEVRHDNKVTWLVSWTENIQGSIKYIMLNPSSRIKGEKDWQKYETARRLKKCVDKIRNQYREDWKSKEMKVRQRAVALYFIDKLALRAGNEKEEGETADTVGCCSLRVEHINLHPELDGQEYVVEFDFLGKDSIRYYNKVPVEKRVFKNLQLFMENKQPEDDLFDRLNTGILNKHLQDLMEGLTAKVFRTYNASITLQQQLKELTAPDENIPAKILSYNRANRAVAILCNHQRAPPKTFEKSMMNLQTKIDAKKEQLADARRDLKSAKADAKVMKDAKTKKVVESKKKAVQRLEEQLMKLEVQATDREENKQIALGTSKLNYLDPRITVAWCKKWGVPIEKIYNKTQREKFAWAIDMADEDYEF

[3] = target: T1, DNA topoisomerase 1 (Homo sapiens); assay: Inhibition of topoisomerase I relaxation activity assessed as supercoiled pBR322 DNA

| inhibition [2] | inhibition [3] | Structure (SMILES) | IC50 (HL-60) [µg/mL] | IC50 [1] [µg/mL] | IC50 (HT-29) [µM] | IC50 (A549) [µM] | IC50 (HepG2) [µM] | IC50 (MKN-28) [µM] |
| --- | --- | --- | --- | --- | --- | --- | --- | --- |
| – | – | C=C1C[C@]23C[C@@]1(O)CC[C@H]2[C@@]12C=C[C@H](O)[C@](C)(C(=O)O1)[C@H]2[C@@H]3C(=O)OCc1ccccc1 | > 100 | > 100 | – | – | – | – |
| – | – | C=C1C(=O)[C@]23C[C@@]1(Cl)CC[C@H]2[C@@]12C=CC(=O)[C@](C)(C(=O)O1)[C@H]2[C@@H]3C(=O)OCc1ccccc1 | 2.7 (≈ 5.78 µM) | 0.5 (≈ 1.07 µM) | 4.5 | 28.8 | 17.9 | 6.8 |
| – | – | C=C1[C@H](O)[C@]23C[C@@]1(O)CC[C@H]2[C@@]12C=C[C@H](O)[C@](C)(C(=O)O1)[C@H]2[C@@H]3C(=O)OCc1ccccc1 | > 100 | > 100 | – | – | – | – |
| – | – | C=C1C(=O)[C@]23C[C@@]1(I)CC[C@H]2[C@@]12C=CC(=O)[C@](C)(C(=O)O1)[C@H]2[C@@H]3C(=O)OCc1ccccc1 | – | – | 50.2 | 46 | 69.5 | 3 |
| – | – | C=C1C(=O)[C@]23C[C@@]1(OCC)CC[C@H]2[C@@]12C=CC(=O)[C@](C)(C(=O)O1)[C@H]2[C@@H]3C(=O)OC | – | – | 34.1 | 18.2 | 120 | 82.7 |
| – | – | CC[C@]1(O)C[C@H]2CN(CCc3c([nH]c4ccccc34)[C@@](C(=O)OC)(c3cc4c(cc3OC)N(C=O)[C@H]3[C@@](O)(C(=O)OC)[C@H](OC(C)=O)[C@]5(CC)C=CCN6CC[C@]43[C@@H]65)C2)C1 [VINCRISTINE] | – | – | 5.3 | 2.5 | 3.7 | 7.1 |
| – | – | C=C1C(=O)[C@]23C[C@@]1(F)CC[C@H]2[C@@]12C=CC(=O)[C@](C)(C(=O)O1)[C@H]2[C@@H]3C(=O)OC | – | – | 72.7 | 38.9 | 40.6 | 4.1 |
| – | – | C=C1C(=O)[C@]23C[C@@]1(OCC)CC[C@H]2[C@@]12C=CC(=O)[C@](C)(C(=O)O1)[C@H]2[C@@H]3C(=O)OCc1ccccc1 | – | – | 23.3 | 24.2 | 29.6 | 16.5 |
| – | – | C=C1C(=O)[C@]23C[C@@]1(I)CC[C@H]2[C@@]12C=CC(=O)[C@](C)(C(=O)O1)[C@H]2[C@@H]3C(=O)OC | – | – | 51.9 | 53.2 | 87 | 6.7 |
| – | – | C=C1C(=O)[C@]23C[C@@]1(O)CC[C@H]2[C@@]12C=CC(=O)[C@](C)(C(=O)O1)[C@H]2[C@@H]3C(=O)OCc1ccccc1 | – | – | 83.3 | 23.9 | 20.5 | 2.5 |
| – | – | C=C1C[C@]23C[C@@]1(O)CC[C@H]2[C@@]12C=CC(=O)[C@](C)(C(=O)O1)[C@H]2[C@@H]3C(=O)OCc1ccccc1 | > 40 | > 40 | – | – | – | – |
| – | – | C=C1C(=O)[C@]23C[C@@]1(F)CC[C@H]2[C@@]12C=CC(=O)[C@](C)(C(=O)O1)[C@H]2[C@@H]3C(=O)OCc1ccccc1 | – | – | 59.1 | 64.4 | 44.1 | 9.8 |
| Active | Dose-dependent effect | C=C1C(=O)[C@]23C[C@@]1(Cl)CC[C@H]2[C@@]12C=CC(=O)[C@](C)(C(=O)O1)[C@H]2[C@@H]3C(=O)OC | 6.5 (≈ 16.6 µM) | 1 (≈ 2.56 µM) | 2.9 | 60.3 | 39.8 | 4.8 |
| – | – | C=C1[C@H](O)[C@]23C[C@@]1(O)CC[C@H]2[C@@]12C=C[C@H](O)[C@](C)(C(=O)O1)[C@H]2[C@@H]3C(=O)OC | > 100 | > 100 | – | – | – | – |
| – | – | C=C1[C@H](O)[C@]23C[C@@]1(OC(C)=O)CC[C@H]2[C@@]12C=C[C@H](OC(C)=O)[C@](C)(C(=O)O1)[C@H]2[C@@H]3C(=O)OCc1ccccc1 | > 100 | > 100 | – | – | – | – |
| – | – | C=C1C(=O)[C@]23C[C@@]1(O)CC[C@H]2[C@@]12C=CC(=O)[C@](C)(C(=O)O1)[C@H]2[C@@H]3C(=O)OC | – | – | 65.7 | 90.9 | 37.2 | 39.6 |
| – | – | C=C1C(=O)[C@]23C[C@@]1(OC)CC[C@H]2[C@@]12C=CC(=O)[C@](C)(C(=O)O1)[C@H]2[C@@H]3C(=O)OC | – | – | 80.2 | 54.5 | 43.5 | 3.4 |
| – | – | C=C1C[C@]23C[C@@]1(O)CC[C@H]2[C@@]12C=C[C@H](O)[C@](C)(C(=O)O1)[C@H]2[C@@H]3C(=O)OC | > 100 | > 100 | – | – | – | – |
| – | – | C=C1C[C@]23C[C@@]1(OC(C)=O)CC[C@H]2[C@@]12C=C[C@H](OC(C)=O)[C@](C)(C(=O)O1)[C@H]2[C@@H]3C(=O)OCc1ccccc1 | > 100 | > 100 | – | – | – | – |
| – | – | C=C1C(=O)[C@]23C[C@@]1(OC)CC[C@H]2[C@@]12C=CC(=O)[C@](C)(C(=O)O1)[C@H]2[C@@H]3C(=O)OCc1ccccc1 | – | – | 48.4 | 28.2 | 35 | 0.8 |
| – | – | C=C1C[C@]23C[C@@]1(O)CC[C@H]2[C@@]12C=C[C@H](O)[C@](C)(C(=O)O1)[C@H]2[C@@H]3C(=O)O [GIBBERELLIN GA3] | > 100 | > 100 | – | – | – | – |
| – | – | C=C1C(=O)[C@]23C[C@@]1(OC(C)=O)CC[C@H]2[C@@]12C=C[C@H](OC(C)=O)[C@](C)(C(=O)O1)[C@H]2[C@@H]3C(=O)OCc1ccccc1 | > 40 | > 40 | – | – | – | – |
